Molecules are shown by their SMILES.

For one series, the system named is VLA-4 (VCAM-1). Description: Adhesion of TPA-activated Jurkat cells to SVT2/VCAM-1 monolayers. The class given is cell-based. Conditions: Homo sapiens, 0.75 h, SVT2/VCAM-1, TPA 125 ng/ml, 45 min. As for the experimental part: SVT2 cells transfected with human ICAM-1 or VCAM-1 (SVT2/ICAM-1 and […], respectively) were plated into 96-well plates and cultured overnight. […] The labeled Jurkat cells were washed three times and resuspended at a density of 4×10^6 cells/ml in complete RPMI medium. Serial dilutions of Ajoene were prepared in complete RPMI medium. Aliquots of the cells (0.5 ml) were then mixed with an equal volume of Ajoene dilutions (1:1 v/v), and the mixtures incubated at 37° C. for 30 min. Thereafter, Ajoene-incubated cells were added in duplicate to SVT2/ICAM-1 and SVT2/VCAM-1 monolayers, and TPA was introduced into each well to the final concentration of 125 ng/ml. The plates were incubated at 37° C. for 45 min, after which the non-adherent cells were removed by washing with warm complete RPMI medium. The bound labeled cells were lysed by adding 1% Triton X-100 solution in 0.1 N HCl. The lysates were assayed in a gamma counter to determine the percentage of bound cells. […] Thus, coculturing of Jurkat cells with SVT2/ICAM-1 and SVT2/VCAM-1 cells makes it possible to assess, respectively, the function of IFA-1 and VLA-4 under identical conditions. In the absence of TPA, 10 and 20% of the added Jurkat cells adhered to SVT2/ICAM-1 and SVT2/VCAM-1 cells, respectively. […]

Series [1] deals with 111In-labeled neutrophils. Description: Neutrophil recruitment to inflamed skin. The class given is in vivo, rat. Conditions: 50 mg/kg i.v.; for Accumulation of 111In-labeled Neutrophils (mean ± SEM): 2 h. The source says:
Chemotactic factors (e.g., C5adesArg) and cytokines, such as tumor necrosis factor α (TNF) or interferon gamma (IFN), induce rapid cutaneous inflammatory reactions, when injected intradermally. These inflammatory reactions are characterized by integrin-mediated migration of ^51 Cr-labeled monocytes and ^111 In-labeled neutrophils. The mechanisms of leukocyte recruitment to the inflammatory loci differ, however, in that chemotactic factors act primarily on leukocytes (by upregulating integrins), whereas TNF and IFN activate endothelial cells (which results, inter alia, in rapid expression of integrin ligands, such as ICAM-1 and VCAM-1).
Agents used for the induction of the inflammation included rat IFN, recombinant mouse TNF (Genentech, South San Francisco, Calif.), and Zymozan-activated serum (ZAS). ZAS, a source of C5adesArg, was generated by activating complement in normal rat serum with 5 mg/ml of Zymozan A (Sigma Chemical Company, St. Louis, Mo.) at 37° C. for 60 min, after which the zymozan was removed.
Rat monocytes and neutrophils were isolated and labeled as described in Example 6, supra. Male Lewis rats were administered intravenously with 50 mg/kg Ajoene (treatment group) or its vehicle (control), followed within 2-3 min by infusion of the labeled cells. Immediately afterwards, the skin on the back of all animals was shaved and the inflammatory stimuli and the diluent control were injected intradermally at several sites of the skin of each animal. Two hours later, 1 ml of blood was taken from each rat, and the animals were sacrificed. The dorsal skin, including the area of dermal inflammatory reactions, was removed and frozen, and the injected skin sites were punched out with a 12-mm punch and counted in a gamma spectrometer (model 1280, LXB Instruments).

For another series, the system named is HIV-1RF. Description: HIV-1RF replication in H9 cells (HIV antigens by solid phase immunoassay). As to conditions: Human immunodeficiency virus 1, m.o.i. 0.1, 72 h. It counts as cell-based.
The test system of a further series is MT-4 cells. It counts as cell-based.
Another series concerns WI-38 cells. The class given is cell-based, human.

Usually IC50 stands for the concentration that inhibits the measured activity by half. For the compound `C=CCSSC=CC[S+]([O-])CC=C` (stereo not shown) [Ajoene, 4,5,9-trithiadodeca-1,6,11-triene-9-oxide], the IC50 with VLA-4 (VCAM-1) is approximately 20 µM; with HIV-1RF it was 25 µM. The “Accumulation of 111In-labeled Neutrophils (mean ± SEM)” value in series [1] (10 ng TNF, P < 0.006) is on record as 1,289 cpm per inflammatory locus; in series [1] (25% ZAS, P < 0.001), 5,558 cpm per inflammatory locus; in series [1] (50% ZAS, P < 0.001) it was 7,926 cpm per inflammatory locus; in series [1] (300 U IFN, P < 0.060) it was 160 cpm per inflammatory locus; in series [1] (diluent control stimulus, N.S.) it was 53 cpm per inflammatory locus. In series [1], the “inhibition of neutrophil migration to loci of acute cutaneous inflammation” value is reported as 30-40%. Moreover, the “toxic effects on the cells” value in the series on MT-4 cells was “without any toxic effects on the cells”. Besides, the toxicity entry with WI-38 cells is on record as “no detectable toxicity”.
